Among the test systems are HCT-15 colon; MOLT-4 leukemia; SR leukemia; TK-10 renal; NCI-H23 lung; CCRF-CEM leukemia; NCI-H522 lung; MDA-MB-231 breast; SNB-75 CNS; NCI-H226 lung.
Common to all, as to assay: NCI-60 cell line screen, 48 h

“And” between values parts separate entries of the source, which are not always exact repeats. Equal values may be shown once.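 Following 48 hours of exposure in 96-well plates, responses at five concentrations were used to interpolate endpoints linearly. GI50 is the concentration that inhibits growth by half. TGI marks complete inhibition of growth.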 A value given as a limit tells only on which side of the number the result lay.

As to `CC1=C(C(=O)Nc2ccc(F)c(Cl)c2)C(c2ccccc2Cl)NC(=S)N1` (stereo unspecified), the GI50 is 16.2 µM with HCT-15 colon; > 50 µM with MOLT-4 leukemia; 23.1 µM in the assay on SR leukemia; 48.8 µM in the assay with TK-10 renal; > 50 µM in the assay on NCI-H23 lung; > 50 µM in the assay with CCRF-CEM leukemia. In addition, the GI50 was 35.7 µM with NCI-H522 lung and 19.6 µM in the assay with MDA-MB-231 breast. For the same molecule, the TGI with HCT-15 colon, in the assay on MOLT-4 leukemia, with SR leukemia, in the assay on TK-10 renal, with NCI-H23 lung and with CCRF-CEM leukemia was > 50 µM in each case. Also, the TGI in the assay with NCI-H522 lung and in the assay with MDA-MB-231 breast was > 50 µM each time.
In the case of `CCCCCCCCCCCCCC(=O)O[C@H]1CC[C@H](NC(=O)[C@H](OC)[C@H](O)[C@@H](O)[C@H](O)/C=C/C(C)C)C(=O)NC1`, the TGI in the assay with HCT-15 colon was 21.1 µM and 90.7 µM; with MOLT-4 leukemia it was 16.9 µM and 14.5 µM; in the assay on SR leukemia, 9.3 µM; in the assay on NCI-H23 lung it was 4.77 µM and 0.5 µM; in the assay with SNB-75 CNS, 38.8 µM; in the assay with CCRF-CEM leukemia, 8.44 µM and 10.7 µM. Also, the TGI is 13.5 µM with MDA-MB-231 breast and 4.29 µM in the assay on NCI-H226 lung. Moreover, the GI50 with SR leukemia is < 0.001 µM; in the assay with MDA-MB-231 breast it was 0.00638 µM; in the assay on NCI-H226 lung, 0.00206 µM.
Turning to `Oc1ccccc1-c1nn(CNc2cccc(Cl)c2)c(=S)o1`, the TGI with MOLT-4 leukemia is > 100 µM; with SR leukemia, 49.4 µM; in the assay on TK-10 renal, 86.3 µM; in the assay with NCI-H23 lung it was 71.8 µM; with CCRF-CEM leukemia it was 27.3 µM; with NCI-H522 lung it was > 100 µM. In addition, the TGI with MDA-MB-231 breast and with NCI-H226 lung was > 100 µM throughout. Moreover, the GI50 in the assay with SR leukemia is 15.1 µM; with TK-10 renal, 13.1 µM; with NCI-H23 lung it was 22.8 µM; in the assay on CCRF-CEM leukemia it was 3.63 µM; in the assay on NCI-H522 lung it was > 100 µM; in the assay on MDA-MB-231 breast, 60.2 µM. Moreover, the GI50 in the assay on NCI-H226 lung was 54.2 µM.
On to `COc1ccc(C(=O)OCC2OC(n3cnc4c(=S)nc[nH]c43)C(OC(=O)c3ccc(OC)cc3)C2OC(=O)c2ccc(OC)cc2)cc1` (stereo unspecified), for which the TGI is > 100 µM with HCT-15 colon; > 100 µM in the assay on MOLT-4 leukemia; > 100 µM in the assay with SR leukemia; > 100 µM in the assay on TK-10 renal; > 100 µM in the assay with NCI-H23 lung; 77 µM with SNB-75 CNS. The TGI in the assay on CCRF-CEM leukemia is 93.3 µM; in the assay with NCI-H522 lung, 54.5 µM; in the assay with NCI-H226 lung, > 100 µM.
Regarding `CCC[CH2][Sn]1([CH2]CCC)[O]C(=O)c2cc(I)cc(I)c2[O]1`, the GI50 is 1.28 µM in the assay on HCT-15 colon; 0.344 µM in the assay with MOLT-4 leukemia; 0.279 µM with SR leukemia; 1.25 µM in the assay with TK-10 renal; 1.18 µM in the assay on NCI-H23 lung; 1.04 µM with SNB-75 CNS. Besides, the results for the GI50 in the assay on CCRF-CEM leukemia, in the assay on NCI-H522 lung and in the assay with NCI-H226 lung were 0.22 µM, 0.143 µM and 1.75 µM, respectively. In addition, the TGI worked out at 2.93 µM with HCT-15 colon; 1.76 µM with MOLT-4 leukemia; 1.7 µM in the assay with SR leukemia; 2.52 µM in the assay with TK-10 renal; 2.9 µM with NCI-H23 lung; 2.25 µM in the assay with SNB-75 CNS. The TGI with CCRF-CEM leukemia was 0.79 µM; in the assay with NCI-H522 lung, 0.323 µM; in the assay on NCI-H226 lung, 3.29 µM.
As for `Cc1c(Cl)ccc2c1NC(=O)C2(O)C(C(=O)c1ccccc1)c1ccccc1` (stereo unspecified), the TGI in the assay with HCT-15 colon is > 100 µM; in the assay on MOLT-4 leukemia, 76.7 µM; in the assay with SR leukemia, 60.2 µM; in the assay on TK-10 renal, > 100 µM; in the assay on NCI-H23 lung, 42.2 µM; in the assay on SNB-75 CNS, > 100 µM. The TGI with CCRF-CEM leukemia is 73.8 µM; in the assay on NCI-H522 lung, 93.7 µM; in the assay with NCI-H226 lung, > 100 µM.
On to `O=c1cc(-c2cccc(C(F)(F)F)c2)[nH]c2cc3c(cc12)OCO3`, for which the GI50 was 0.4 µM in the assay on HCT-15 colon, 0.338 µM in the assay with MOLT-4 leukemia, 22.5 µM in the assay on TK-10 renal and 0.276 µM in the assay with NCI-H23 lung. In addition, the TGI in the assay with MOLT-4 leukemia is 50 µM and > 100 µM; in the assay on SR leukemia, > 100 µM; in the assay with TK-10 renal, > 100 µM; with NCI-H522 lung it was > 100 µM; with MDA-MB-231 breast, 30.1 µM.
As to `Cc1ccc(NC(=O)C(=O)C2C(=O)N(c3ccccc3)N=C2N)cc1C` (stereo unspecified), the TGI in the assay on HCT-15 colon, in the assay with MOLT-4 leukemia, in the assay on SR leukemia, in the assay on TK-10 renal, with NCI-H23 lung and in the assay on SNB-75 CNS was > 100 µM in each case. The TGI with CCRF-CEM leukemia, with NCI-H522 lung and in the assay on NCI-H226 lung was > 100 µM each time.
Take `COc1cc(/C=C2\[C@H]3c4c(c(OC)c(C)c(OC)c4OC)C[C@@H](C(=O)N2Cc2ccccc2)N3C(=O)OCC(C)C)c(OC)c(C)c1OC`: the TGI with HCT-15 colon, in the assay on MOLT-4 leukemia, in the assay on SR leukemia, in the assay with TK-10 renal, in the assay with NCI-H23 lung and in the assay on SNB-75 CNS was > 100 µM each time. Further, the TGI with CCRF-CEM leukemia was > 100 µM; with NCI-H522 lung it was > 100 µM; in the assay on NCI-H226 lung, 40.9 µM.
For `[O-]c1c2c(nn1-c1ccccc1)c1ccccc1c[n+]2Cc1ccccc1`, the TGI in the assay on HCT-15 colon, in the assay on MOLT-4 leukemia, in the assay on SR leukemia, with TK-10 renal, with NCI-H23 lung and with SNB-75 CNS was > 100 µM each time. In addition, the TGI in the assay on CCRF-CEM leukemia, with NCI-H522 lung and in the assay with NCI-H226 lung was > 100 µM in each case.
As for `COc1ccc(N(CC(=O)NCCC[Te]c2ccccc2)C(=O)c2ccccc2)cc1`, the GI50 with HCT-15 colon was 2.95 µM; with MOLT-4 leukemia, 3.51 µM; with SR leukemia, 2.82 µM; in the assay with TK-10 renal it was 3.85 µM; in the assay with NCI-H23 lung, 3.17 µM; in the assay with SNB-75 CNS it was 2.58 µM. For the same molecule, the GI50 with NCI-H522 lung is 3.1 µM; in the assay with MDA-MB-231 breast it was 2.08 µM; with NCI-H226 lung, 2.62 µM. For the same molecule, the TGI with HCT-15 colon is 15 µM; with MOLT-4 leukemia, 17.5 µM; with TK-10 renal, 11.4 µM; with NCI-H23 lung, 9.36 µM; in the assay with SNB-75 CNS, 9.64 µM; in the assay with NCI-H522 lung, 8.84 µM. Besides, the TGI with MDA-MB-231 breast is 4.76 µM; in the assay with NCI-H226 lung, 7.21 µM.

The values above are taken from PubChem BioAssay (NCI).
